This experiment deals with 786-0 complex spheroids with HUVEC/MSC, growth % test/control. Put plainly: Anticancer human tumor 786-0 cell line growth inhibition [AhR].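 On all read-outs here: compound exposure lasted seven days before the read-out.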 Conditions: for viability, T/C: stronger effect = lower value. The method, boiled down:
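Agents were dosed in half-log steps down from roughly clinical Cmax, or from 10 microM where Cmax was unknown, alone and with AhR antagonists. Read-out: percent test/control growth of tumor spheroids containing HUVEC and MSC stromal cells.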

Where [1] appears, read: curve of first compound, second compound 0.1 µM.
Setting [2] is: curve of first compound, second compound 0.316 µM.
[3] abbreviates: curve of first compound, second compound 1 µM.
[4] abbreviates: curve of first compound, second compound 3.16 µM.
Where [5] appears, read: curve of first compound, second compound 10 µM.
Where [6] appears, read: second compound 0.1 µM, first compound 0.00949 µM.
[7] abbreviates: second compound 0.1 µM, first compound 0.03 µM.
Setting [8] is: second compound 0.1 µM, first compound 0.0949 µM.
The mark [9] stands for this setting: second compound 0.1 µM, first compound 0.3 µM.
[10] abbreviates: second compound 0.1 µM, first compound 0.949 µM.
Setting [11] is: second compound 0.1 µM, first compound 3 µM.
Setting [12] is: second compound 0.316 µM, first compound 0.00949 µM.
[13] abbreviates: second compound 0.316 µM, first compound 0.03 µM.
The mark [14] stands for this setting: second compound 0.316 µM, first compound 0.0949 µM.
[15] abbreviates: second compound 0.316 µM, first compound 0.3 µM.
[16] abbreviates: second compound 0.316 µM, first compound 0.949 µM.
The mark [17] stands for this setting: second compound 0.316 µM, first compound 3 µM.
[18] abbreviates: second compound 1 µM, first compound 0.00949 µM.
Where [19] appears, read: second compound 1 µM, first compound 0.03 µM.
[20] abbreviates: second compound 1 µM, first compound 0.0949 µM.
Where [21] appears, read: second compound 1 µM, first compound 0.3 µM.
Where [22] appears, read: second compound 1 µM, first compound 0.949 µM.
[23] abbreviates: second compound 1 µM, first compound 3 µM.
Setting [24] is: second compound 3.16 µM, first compound 0.00949 µM.
Setting [25] is: second compound 3.16 µM, first compound 0.03 µM.
Where [26] appears, read: second compound 3.16 µM, first compound 0.0949 µM.
[27] abbreviates: second compound 3.16 µM, first compound 0.3 µM.
Where [28] appears, read: second compound 3.16 µM, first compound 0.949 µM.
Setting [29] is: second compound 3.16 µM, first compound 3 µM.
Where [30] appears, read: second compound 10 µM, first compound 0.00949 µM.
Setting [31] is: second compound 10 µM, first compound 0.03 µM.
[32] abbreviates: second compound 10 µM, first compound 0.0949 µM.
Setting [33] is: second compound 10 µM, first compound 0.3 µM.
The mark [34] stands for this setting: second compound 10 µM, first compound 0.949 µM.
Where [35] appears, read: second compound 10 µM, first compound 3 µM.

Where “and” joins values, the source holds several entries; their conditions need not be identical. Equal entries are not always repeated.

`CCN(c1cc(-c2ccc(CN3CCOCC3)cc2)cc(C(=O)NCc2c(C)cc(C)[nH]c2=O)c1C)C1CCOCC1` + Cc1cncc(-c2nc(NCCc3c[nH]c4ccccc34)c3ncn(C(C)C)c3n2)c1: the IC50 (commonly the concentration needed to halve the response being measured) reads like this: under setting [1], more than 3000 nM; under setting [2], more than 3000 nM; under setting [3], more than 3000 nM; under setting [4], more than 3000 nM; under setting [5], less than 9.49 nM. The viability, T/C (usually the ratio of treated to control) was 121% under setting [6]; 119% under setting [7]; 112% under setting [8]; 121% under setting [9]; 120% under setting [10]; 131% under setting [11]. Further, the viability, T/C was 125% under setting [12]; 120% under setting [13]; 128% under setting [14]; 131% under setting [15]; 131% under setting [16]; 138% under setting [17]. Besides, the viability, T/C is, setting by setting: under setting [18], 113%; under setting [19], 118%; under setting [20], 113%; under setting [21], 114%; under setting [22], 126%; under setting [23], 127%. Besides, the viability, T/C is 75.8% under setting [24]; 73.8% under setting [25]; 79.2% under setting [26]; 73.5% under setting [27]; 74.4% under setting [28]; 76.9% under setting [29]. In addition, the viability, T/C is 16% under setting [30]; 14.8% under setting [31]; 23.9% under setting [32]; 14.8% under setting [33]; 4.25% under setting [34]; 0.53% under setting [35].
As for `O=C(C=Cn1cnc(-c2cc(C(F)(F)F)cc(C(F)(F)F)c2)n1)NNc1cnccn1`, the viability, T/C by setting is: (compound 0.00949 µM) 106% (2×) and 101%; (compound 0.03 µM) 110% and 108% and 112%; (compound 0.0949 µM) 109% and 107% and 105%; (compound 0.3 µM) 66.8% and 69.5% and 52.4%; (compound 0.949 µM) 47.5% and 48.1% and 38.7%; (compound 3 µM) 20.5% and 24.1% and 16.9%. Besides, the IC50 (curve of compound) was 700 nM and 745 nM and 356 nM.
Take `Nc1ncn(C2CC(O)C(CO)O2)c(=O)n1` (centres undefined) + CC(CO)NC(=O)c1cc(-c2ccc(Cl)cc2)nn(-c2cnn(C)c2)c1=O: the IC50 runs as follows: under setting [1], more than 1000 nM; under setting [2], more than 1000 nM; under setting [3], more than 1000 nM; under setting [4], more than 1000 nM; under setting [5], more than 1000 nM. For the same compound, the viability, T/C was 96.2% (second compound 0.1 µM, first compound 0.00316 µM); 79.7% (second compound 0.1 µM, first compound 0.01 µM); 72.4% (second compound 0.1 µM, first compound 0.0316 µM); 75.3% (second compound 0.1 µM, first compound 0.1 µM); 75.3% (second compound 0.1 µM, first compound 0.316 µM); 62% (second compound 0.1 µM, first compound 1 µM). Also, the viability, T/C runs as follows: (second compound 0.316 µM, first compound 0.00316 µM) 69%; (second compound 0.316 µM, first compound 0.01 µM) 66%; (second compound 0.316 µM, first compound 0.0316 µM) 75.3%; (second compound 0.316 µM, first compound 0.1 µM) 62.1%; (second compound 0.316 µM, first compound 0.316 µM) 57.9%; (second compound 0.316 µM, first compound 1 µM) 55%. Besides, the viability, T/C (second compound 1 µM, first compound 0.00316 µM) was 82.4%; the viability, T/C (second compound 1 µM, first compound 0.01 µM) is 109%; the viability, T/C (second compound 1 µM, first compound 0.0316 µM) is 88.6%; the viability, T/C (second compound 1 µM, first compound 0.1 µM) was 72.1%; the viability, T/C (second compound 1 µM, first compound 0.316 µM) is 65.3%; the viability, T/C (second compound 1 µM, first compound 1 µM) was 61%. For the same compound, the viability, T/C is, setting by setting: (second compound 3.16 µM, first compound 0.00316 µM) 108%; (second compound 3.16 µM, first compound 0.01 µM) 94.1%; (second compound 3.16 µM, first compound 0.0316 µM) 93.8%; (second compound 3.16 µM, first compound 0.1 µM) 91.2%; (second compound 3.16 µM, first compound 0.316 µM) 77.7%; (second compound 3.16 µM, first compound 1 µM) 64.3%. The viability, T/C by setting is: (second compound 10 µM, first compound 0.00316 µM) 116%; (second compound 10 µM, first compound 0.01 µM) 121%; (second compound 10 µM, first compound 0.0316 µM) 122%; (second compound 10 µM, first compound 0.1 µM) 117%; (second compound 10 µM, first compound 0.316 µM) 109%; (second compound 10 µM, first compound 1 µM) 73.1%.
In the case of `O=C(C=Cn1cnc(-c2cc(C(F)(F)F)cc(C(F)(F)F)c2)n1)NNc1cnccn1` + Cc1cncc(-c2nc(NCCc3c[nH]c4ccccc34)c3ncn(C(C)C)c3n2)c1, the IC50 by setting is: under setting [1], 736 nM; under setting [2], 619 nM; under setting [3], 562 nM; under setting [4], 412 nM; under setting [5], less than 9.49 nM. In addition, the viability, T/C is, setting by setting: under setting [6], 118%; under setting [7], 125%; under setting [8], 134%; under setting [9], 75.5%; under setting [10], 50.2%; under setting [11], 20.5%. Moreover, the viability, T/C under setting [12] was 130%; the viability, T/C under setting [13] is 142%; the viability, T/C under setting [14] is 151%; the viability, T/C under setting [15] was 76%; the viability, T/C under setting [16] was 49.4%; the viability, T/C under setting [17] was 19.9%. For the same compound, the viability, T/C runs as follows: under setting [18], 127%; under setting [19], 131%; under setting [20], 129%; under setting [21], 67.5%; under setting [22], 44.9%; under setting [23], 19.9%. Also, the viability, T/C under setting [24] is 116%; the viability, T/C under setting [25] is 146%; the viability, T/C under setting [26] was 131%; the viability, T/C under setting [27] is 57.6%; the viability, T/C under setting [28] is 37.6%; the viability, T/C under setting [29] is 21.9%. For the same compound, the viability, T/C is 12.7% under setting [30]; 18.3% under setting [31]; 11.7% under setting [32]; 4.08% under setting [33]; 5.46% under setting [34]; 4.69% under setting [35].
`Nc1ncn(C2CC(O)C(CO)S2)c(=O)n1` (centres undefined): the viability, T/C by setting is: (compound 0.000949 µM) 109% and 99.9% and 112%; (compound 0.003 µM) 103% and 94.9% and 105%; (compound 0.00949 µM) 99.4% and 94.5% and 98.6%; (compound 0.03 µM) 102% and 107% and 100%; (compound 0.0949 µM) 73.2% and 96.8% and 89%; (compound 0.3 µM) 63.7% and 75.5% and 63.9%. Besides, the IC50 (curve of compound) was more than 300 nM.

The record behind these values is PubChem BioAssay AID1919003 (Molecular Pharmacology Branch, DTP, NCI, 2023).
